Results: patent US20240425486A1, “FUSED BICYCLIC SUBSTITUTED N-(1H-INDOL-7-YL)BENZENESULFONAMIDES AND USES THEREOF” (Triana Biomedicines, Inc., priority 2021, published 2024)

Assays:
DCAF15/RBM39 = DCAF15/RBM39 (Homo sapiens (Human), UniProt Q14498+Q66K64); test: AlphaLISA compound-induced DCAF15-RBM39 ternary complex formation; assay type: binding; details: His-tagged DCAF15 complex and biotin-carrying RBM39
Protocol: Example 7: Quantitative Evaluation of Compound-Induced Ternary Complex Formation Using Amplified Luminescent Proximity Homogeneous Assay
Compound-induced DCAF15-RBM39 ternary complex formation was monitored using AlphaLISA® assays (Perkin Elmer, Waltham, MA). Test compounds were first collected in a 384-well microplate (cat. #781280, Grenier Bio-One, Monroe, NC) as 2 mM stocks in 100% dimethyl sulfoxide (DMSO). These stocks were then serially diluted in DMSO by 3-fold into a new plate (cat. #781280, Grenier Bio-One, Monroe, NC) using a Mosquito HTS dispenser (Mosquito® HTS, SPT Labtech, Boston, MA). 0.2 μL of these diluted stocks were then dispensed into a 384-well Optiplate (cat. #6007290, Perkin Elmer, Waltham, MA) in duplicate wells, to assemble the final assay plate consisting of duplicated dose ranges. Separately, a protein mixture consisting of His-tagged DCAF15 complex and biotin-carrying RBM39, each at 408 nM (2.04×), was prepared in 50 mM HEPES, pH 7.5, 100 mM NaCl, 2 mM MgCl2, 0.1% BSA, 2 mM TCEP, 0.05% Tween-20 (dilution buffer). 9.8 μL of this protein mixture was then mixed with the compounds in the assay plate and incubated for one hour at room temperature. Reaction mixtures with no compounds added were included as negative controls, while a His-tagged and biotinylated GST protein was included to track general assay performance. Nickel Chelate AlphaLISA Acceptor beads (cat. #AL108M, Perkin Elmer, MA) and AlphaScreen Streptavidin Donor beads (cat. #6760002, Perkin Elmer, Waltham, MA) were prepared separately in the dilution buffer as 4× stocks (80 ug/ml). The beads were then added to the assay plate sequentially with incubation at room temperature for 1-2 hours after each addition. Signals were recorded using EnVision 2104 Multilabel Plate Reader (Perkin Elmer, Waltham, MA) and titration curves were generated in GraphPad Prism (7.00, GraphPad, La Jolla, CA).

DCAF15 = DCAF15 (Homo sapiens (Human), UniProt Q66K64); test: HTRF competition assay, binary interaction with DCAF15; assay type: binding; details: competition with Alexa Fluor 647 tracer
DCAF15, sequence (Q66K64 whole entry): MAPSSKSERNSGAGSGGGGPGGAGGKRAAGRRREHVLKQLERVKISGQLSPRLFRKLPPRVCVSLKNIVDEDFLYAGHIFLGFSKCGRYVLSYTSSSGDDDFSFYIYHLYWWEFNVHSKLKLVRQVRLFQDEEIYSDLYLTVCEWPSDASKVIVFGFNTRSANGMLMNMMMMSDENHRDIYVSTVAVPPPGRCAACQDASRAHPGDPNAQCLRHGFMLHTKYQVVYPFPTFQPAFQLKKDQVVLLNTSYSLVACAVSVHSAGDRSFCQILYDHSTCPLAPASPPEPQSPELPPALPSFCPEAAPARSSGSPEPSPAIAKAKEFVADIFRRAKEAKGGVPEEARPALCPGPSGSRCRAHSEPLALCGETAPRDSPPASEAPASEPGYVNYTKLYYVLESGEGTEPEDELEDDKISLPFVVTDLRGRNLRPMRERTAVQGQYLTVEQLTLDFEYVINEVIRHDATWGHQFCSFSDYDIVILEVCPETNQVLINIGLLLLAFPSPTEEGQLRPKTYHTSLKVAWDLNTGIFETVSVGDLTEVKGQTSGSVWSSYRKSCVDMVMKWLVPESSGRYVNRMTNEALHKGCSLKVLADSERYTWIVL
DCAF15, sequence (Q16531 whole entry partner): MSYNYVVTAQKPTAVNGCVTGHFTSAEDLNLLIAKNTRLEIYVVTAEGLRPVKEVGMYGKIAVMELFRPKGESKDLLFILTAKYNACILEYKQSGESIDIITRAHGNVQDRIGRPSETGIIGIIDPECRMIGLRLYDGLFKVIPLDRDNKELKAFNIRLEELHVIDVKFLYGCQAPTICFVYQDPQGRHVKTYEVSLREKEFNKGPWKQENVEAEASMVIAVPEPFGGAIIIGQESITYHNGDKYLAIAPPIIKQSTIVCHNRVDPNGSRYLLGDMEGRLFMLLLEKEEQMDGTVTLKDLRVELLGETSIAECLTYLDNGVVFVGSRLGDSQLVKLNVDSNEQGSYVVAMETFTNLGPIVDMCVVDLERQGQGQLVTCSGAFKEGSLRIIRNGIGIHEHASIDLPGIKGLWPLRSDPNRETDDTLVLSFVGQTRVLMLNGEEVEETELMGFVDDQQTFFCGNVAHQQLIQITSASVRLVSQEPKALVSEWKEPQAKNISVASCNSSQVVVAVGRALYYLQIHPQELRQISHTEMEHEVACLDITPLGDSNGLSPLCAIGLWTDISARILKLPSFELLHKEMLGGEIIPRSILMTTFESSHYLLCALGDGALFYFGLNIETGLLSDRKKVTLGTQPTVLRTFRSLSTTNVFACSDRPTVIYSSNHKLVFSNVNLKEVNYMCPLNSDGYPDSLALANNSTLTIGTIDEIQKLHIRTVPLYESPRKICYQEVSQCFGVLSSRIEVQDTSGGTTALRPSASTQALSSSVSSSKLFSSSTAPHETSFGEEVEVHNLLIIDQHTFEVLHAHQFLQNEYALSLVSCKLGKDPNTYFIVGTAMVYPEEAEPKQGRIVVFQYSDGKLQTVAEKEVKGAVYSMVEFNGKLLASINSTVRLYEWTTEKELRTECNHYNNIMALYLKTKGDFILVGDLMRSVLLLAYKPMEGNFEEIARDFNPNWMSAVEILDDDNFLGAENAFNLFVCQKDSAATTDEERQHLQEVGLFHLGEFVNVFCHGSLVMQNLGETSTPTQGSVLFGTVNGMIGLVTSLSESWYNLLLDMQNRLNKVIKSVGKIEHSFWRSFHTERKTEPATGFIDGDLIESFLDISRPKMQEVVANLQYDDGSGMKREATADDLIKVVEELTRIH
Protocol: Example 8: Measurement of Binary Interaction Between Compounds and DCAF15 Using Homogeneous Time Resolved Fluorescence (HTRF)
DCAF15 interactions with test compounds were monitored using HTRF competition assays (Cisbio, Bedford, MA). Test compounds were first collected in a 384-well microplate (cat. #781280, Grenier Bio-One, Monroe, NC) as 10 mM stocks in 100% dimethyl sulfoxide (DMSO). A second stock plate (cat. #781280, Grenier Bio-One, Monroe, NC) was prepared through 3-fold serial dilution in DMSO of the afore-mentioned stocks using a Mosquito HTS dispenser (mosquito@ HTS, SPT Labtech, Boston, MA). 0.2 μL of these diluted stocks were then dispensed into a 384-well Optiplate (cat. #6007290, Perkin Elmer, Waltham, MA) in duplicate wells, to assemble the assay plate. The tracer molecule containing an Alexa Fluor 647 probe was prepared in 25 mM HEPES pH 7.5, 100 mM NaCl, 0.1 mg/ml BSA, 0.005% Tween 20, 0.5 mM TCEP (dilution buffer) to 612 nM (2.04×). Separately, His-tagged DCAF15 complex was prepared at 32 nM (4×) in the dilution buffer, and mAb Anti-6His-Eu cryptate Gold (cat. #61H12KLA, Cisbio, Bedford, MA) at 4× dilution in the detection buffer (cat. #61DB9RDF, Cisbio, Bedford, MA). These two solutions were mixed and incubated for 15 min at room temperature. 9.8 μL of the tracer solution and 10 μL of the DCAF15/mAb Anti-6His-Eu cryptate Gold mixture were added sequentially to each well in the assay plate. Reaction mixtures with no DCAF15 added were included as positive controls. The final mixture was incubated for an hour at room temperature and spun down briefly before data collection at 615 nm and 666 nm using EnVision 2104 Multilabel Plate Reader (Perkin Elmer, Bedford, MA). Binding was estimated based on ratiometric analysis and titration curves were generated in GraphPad Prism (7.00, GraphPad, La Jolla, CA).

DCAF15/RBM39, sequence (Q66K64 whole entry, species assumed): as the sequence (Q66K64 whole entry) above
DCAF15/RBM39, sequence (Q14498 whole entry, species assumed): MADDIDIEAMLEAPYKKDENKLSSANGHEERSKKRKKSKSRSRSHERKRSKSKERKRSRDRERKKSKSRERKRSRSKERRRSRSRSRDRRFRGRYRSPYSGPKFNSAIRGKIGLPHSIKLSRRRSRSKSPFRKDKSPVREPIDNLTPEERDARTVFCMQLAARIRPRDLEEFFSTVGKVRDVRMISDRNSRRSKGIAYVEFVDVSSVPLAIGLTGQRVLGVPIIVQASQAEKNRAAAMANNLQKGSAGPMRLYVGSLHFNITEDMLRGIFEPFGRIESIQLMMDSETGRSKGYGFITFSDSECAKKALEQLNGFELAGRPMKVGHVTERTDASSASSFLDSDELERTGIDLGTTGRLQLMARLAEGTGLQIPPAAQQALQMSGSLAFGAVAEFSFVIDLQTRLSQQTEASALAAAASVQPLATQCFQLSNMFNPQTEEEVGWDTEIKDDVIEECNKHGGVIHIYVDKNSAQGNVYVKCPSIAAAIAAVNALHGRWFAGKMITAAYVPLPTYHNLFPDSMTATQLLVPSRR
DCAF15/RBM39, sequence (Q16531 whole entry partner, species assumed): as the sequence (Q16531 whole entry partner) above

Structure (SMILES)	EC50 (DCAF15/RBM39) [nM]	IC50 (DCAF15) [nM]
Cn1cc(S(=O)(=O)Nc2ccc(Cl)c3c(Cl)c[nH]c23)c2ccccc21 [Compound 2]	1000 to 10000	–
O=S(=O)(Nc1ccc(Cl)c2c(Cl)c[nH]c12)c1cc2cc(F)ccc2s1 [Compound 5]	1000 to 10000	–
O=C1CCc2ccc(S(=O)(=O)Nc3ccc(Cl)c4c(Cl)c[nH]c34)cc21 [Compound 7]	≤ 1000	1000 to 10000
O=C1OCc2ccc(S(=O)(=O)Nc3ccc(Cl)c4c(Cl)c[nH]c34)cc21 [Compound 10]	≤ 1000	1000 to 10000
O=S(=O)(Nc1ccc(Cl)c2c(Cl)c[nH]c12)c1ccc2occc2c1 [Compound 11]	≤ 1000	1000 to 10000
CN1C(=O)c2ccc(S(=O)(=O)Nc3ccc(Cl)c4c(Cl)c[nH]c34)cc2C1=O [Compound 16]	1000 to 10000	1000 to 10000
O=S(=O)(Nc1ccc(Cl)c2c(Cl)c[nH]c12)c1ccc2c(c1)OC(F)(F)O2 [Compound 18]	≤ 1000	1000 to 10000
Cn1c(=O)n(C)c2cc(S(=O)(=O)Nc3ccc(Cl)c4c(Cl)c[nH]c34)ccc21 [Compound 19]	1000 to 10000	10000 to 100000
O=c1[nH]c2ccc(S(=O)(=O)Nc3ccc(Cl)c4c(Cl)c[nH]c34)cc2o1 [Compound 21]	1000 to 10000	–
Cn1c(=O)oc2cc(S(=O)(=O)Nc3ccc(Cl)c4c(Cl)c[nH]c34)ccc21 [Compound 22]	≤ 1000	1000 to 10000
O=C1NS(=O)(=O)c2ccc(S(=O)(=O)Nc3ccc(Cl)c4c(Cl)c[nH]c34)cc21 [Compound 23]	1000 to 10000	1000 to 10000
O=S(=O)(Nc1ccc(Cl)c2c(Cl)c[nH]c12)c1ccc2c(c1)CCCC2 [Compound 24]	1000 to 10000	> 100000
O=S(=O)(Nc1ccc(Cl)c2c(Cl)c[nH]c12)c1ccc2ccccc2c1F [Compound 25]	≤ 1000	1000 to 10000
O=S(=O)(Nc1ccc(Cl)c2c(Cl)c[nH]c12)c1ccc2c(c1)CC[C@@H](C(F)F)O2 [Compound 29]	1000 to 10000	10000 to 100000
O=C1CCOc2ccc(S(=O)(=O)Nc3ccc(Cl)c4c(Cl)c[nH]c34)cc21 [Compound 30]	1000 to 10000	–
O=C1OCCc2ccc(S(=O)(=O)Nc3ccc(Cl)c4c(Cl)c[nH]c34)cc21 [Compound 31]	≤ 1000	1000 to 10000
O=C(N1CCc2ccc(S(=O)(=O)Nc3ccc(Cl)c4c(Cl)c[nH]c34)cc2C1)C(F)(F)F [Compound 33]	≤ 1000	–
O=S(=O)(Nc1ccc(Cl)c2c(Cl)c[nH]c12)c1cc(Br)c2c(c1)OCCO2 [Compound 38]	1000 to 10000	1000 to 10000
O=C1COc2ccc(S(=O)(=O)Nc3ccc(Cl)c4c(Cl)c[nH]c34)cc2N1 [Compound 39]	1000 to 10000	–
CN1Cc2cc(S(=O)(=O)Nc3ccc(Cl)c4c(Cl)c[nH]c34)ccc2OC1=O [Compound 41]	≤ 1000	1000 to 10000
Cn1c(=O)c2cc(S(=O)(=O)Nc3ccc(Cl)c4c(Cl)c[nH]c34)ccc2n(C)c1=O [Compound 43, N-(3,4-dichloro-1H-indol-7-yl)-1,3-dimethyl-2,4-dioxo-1,2,3,4-tetrahydroquinazoline-6-sulfonamide]	≤ 1000	–
O=C1COc2cc(S(=O)(=O)Nc3ccc(Cl)c4c(Cl)c[nH]c34)cnc2N1 [Compound 45]	≤ 1000	10000 to 100000
CC(C)(C)OC(=O)N1CCCc2cc(S(=O)(=O)Nc3ccc(Cl)c4c(Cl)c[nH]c34)ccc2C1 [Compound 46]	1000 to 10000	–
O=C1NCCOc2ccc(S(=O)(=O)Nc3ccc(Cl)c4c(Cl)c[nH]c34)cc21 [Compound 48]	≤ 1000	1000 to 10000

The next lines start with the values.

EC50 (DCAF15/RBM39) [nM]	IC50 (DCAF15) [nM]	Structure (SMILES)
≤ 1000	1000 to 10000	CC(=O)N[C@H]1Cc2ccc(S(=O)(=O)Nc3ccc(Cl)c4c(Cl)c[nH]c34)cc2C1 [Compound 8]
1000 to 10000	> 100000	CC1(C)Cc2cc(S(=O)(=O)Nc3ccc(Cl)c4c(Cl)c[nH]c34)ccc2O1 [Compound 9]
1000 to 10000	1000 to 10000	CC(=O)N1CCc2cc(S(=O)(=O)Nc3ccc(Cl)c4c(Cl)c[nH]c34)ccc21 [Compound 12]
1000 to 10000	1000 to 10000	O=C1Nc2ccc(S(=O)(=O)Nc3ccc(Cl)c4c(Cl)c[nH]c34)cc2C1=O [Compound 14]
1000 to 10000	1000 to 10000	CC(=O)N1Cc2ccc(S(=O)(=O)Nc3ccc(Cl)c4c(Cl)c[nH]c34)cc2C1 [Compound 15]
10000 to 100000	–	O=S(=O)(Nc1ccc(Cl)c2c(Cl)c[nH]c12)c1ccc2c(Cl)ccc(Cl)c2c1 [Compound 28]
1000 to 10000	1000 to 10000	O=C1NCCc2ccc(S(=O)(=O)Nc3ccc(Cl)c4c(Cl)c[nH]c34)cc21 [Compound 34]
1000 to 10000	1000 to 10000	O=C1CCc2cc(S(=O)(=O)Nc3ccc(Cl)c4c(Cl)c[nH]c34)c(F)cc2N1 [Compound 35]
≤ 1000	1000 to 10000	CC1(C)CC(=O)Nc2ccc(S(=O)(=O)Nc3ccc(Cl)c4c(Cl)c[nH]c34)cc21 [Compound 36]
≤ 1000	1000 to 10000	O=c1ccc2cc(S(=O)(=O)Nc3ccc(Cl)c4c(Cl)c[nH]c34)ccc2[nH]1 [Compound 37]
≤ 1000	–	O=C1COc2cc(S(=O)(=O)Nc3ccc(Cl)c4c(Cl)c[nH]c34)ccc2N1 [Compound 40]
≤ 1000	1000 to 10000	CC(C)(C)OC(=O)N1CCCc2cc(S(=O)(=O)Nc3ccc(Cl)c4c(Cl)c[nH]c34)ccc2C1 [Compound 47]
≤ 1000	1000 to 10000	O=C1CCSc2ccc(S(=O)(=O)Nc3ccc(Cl)c4c(Cl)c[nH]c34)cc2N1 [Compound 49]
